From patent publication US20240294541A1, “COMPOUNDS CONSTITUTING C20-MODIFIED SALINOMYCIN DERIVATIVES, A METHOD FOR OBTAINING THE SAME, A COMPOSITION CONTAINING THE SAME AND A USE OF SAID COMPOUNDS” (FILECLO SPOLKA Z OGRANICZONA ODPOWIEDZIALNOSCIA, priority 2021, published 2024)

Tests used:
Type in all cases: cell-based
Hs294T (human melanoma) = assay: cells; conditions: for IC50: Homo sapiens, Hs 294T, 72 h with compound, SRB, n/a = non-active compound, read-out: Hs294T IC50; for Hs294T SI: selectivity coefficient vs normal BALB/3T3 cells
[1] = system: NCI-H23 (human lung cancer); assay: In vitro cytotoxicity, SRB assay, NCI-H23; conditions: for IC50: Homo sapiens, NCI-H23, 72 h with compound, SRB, n/a = non-active compound, read-out: NCI-H23 IC50; for NCI-H23 SI: selectivity coefficient vs normal BALB/3T3 cells
[2] = system: PLC/PRF/5 (human liver cancer); assay: cells; conditions: for IC50: Homo sapiens, PLC-PRF-5, 72 h with compound, SRB, n/a = non-active compound, read-out: PLC/PRF/5 IC50; for PLC/PRF/5 SI: selectivity coefficient vs normal BALB/3T3 cells
[3] = system: BALB/3T3 (normal mouse fibroblasts); assay: In vitro cytotoxicity, SRB assay, normal BALB/3T3 fibroblasts; conditions: Mus musculus, BALB/3T3; normal cells; 72 h with compound, SRB; n/a = non-active compound; read-out: BALB/3T3 IC50
[4] = system: PFSK-1 (malignant primitive neuroectodermal tumour); assay: In vitro cytotoxicity, SRB assay, PFSK-1; conditions: for IC50: Homo sapiens, PFSK-1, 72 h with compound, SRB, n/a = non-active compound, read-out: PFSK-1 IC50; for PFSK-1 SI: selectivity coefficient vs normal BALB/3T3 cells
A375 (human melanoma) = assay: In vitro cytotoxicity, SRB assay, A375; conditions: for IC50: Homo sapiens, A-375, 72 h with compound, SRB, n/a = non-active compound, read-out: A375 IC50; for A375 SI: selectivity coefficient vs normal BALB/3T3 cells
[5] = system: KG-1 (human acute myeloid leukaemia); assay: In vitro cytotoxicity, MTT assay, KG-1; conditions: for IC50: Homo sapiens, 72 h with compound, MTT, n/a = non-active compound; for KG-1 SI: selectivity coefficient vs normal BALB/3T3 cells
[6] = system: SNU-16 (human gastric cancer); assay: cells; conditions: for IC50: Homo sapiens, SNU-16, 72 h with compound, MTT, n/a = non-active compound, read-out: SNU-16 IC50; for SNU-16 SI: selectivity coefficient vs normal BALB/3T3 cells
[7] = system: MIA PaCa-2 (human pancreatic cancer); assay: cells; conditions: for IC50: Homo sapiens, MIA PaCa-2, 72 h with compound, SRB, n/a = non-active compound, read-out: MIA PaCa-2 IC50; for MIA PaCa-2 SI: selectivity coefficient vs normal BALB/3T3 cells
[8] = system: A2780 (human ovarian cancer); assay: In vitro cytotoxicity, SRB assay, A2780; conditions: for IC50: Homo sapiens, A2780, 72 h with compound, SRB, n/a = non-active compound, read-out: A2780 IC50; for A2780 SI: selectivity coefficient vs normal BALB/3T3 cells
[9] = system: A2780Cis (cisplatin-resistant human ovarian cancer); assay: In vitro cytotoxicity, SRB assay, A2780Cis; conditions: for IC50: Homo sapiens, A2780cis, 72 h, read-out: A2780Cis IC50 (nM)

CC[C@@H](C(=O)[C@@H](C)[C@@H](O)[C@H](C)[C@@H]1O[C@@H]([C@@H](CC)C(=O)O)CC[C@@H]1C)[C@H]1O[C@]2(C=C[C@@H](NC(=O)NCc3ccccc3)[C@]3(CC[C@@](C)([C@H]4CC[C@](O)(CC)[C@H](C)O4)O3)O2)[C@H](C)C[C@@H]1C [FLC-00337-1]
IC50 (Hs294T (human melanoma)): 549 nM | Hs294T SI (Hs294T (human melanoma)): 0.2 | IC50 [1]: 445 nM | NCI-H23 SI [1]: 0.3 | IC50 [2]: 41.4 nM | PLC/PRF/5 SI [2]: 2.9 | IC50 [3]: 122 nM | IC50 [4]: 19.4 nM | PFSK-1 SI [4]: 6.3 | IC50 (A375 (human melanoma)): 296 nM | A375 SI (A375 (human melanoma)): 0.4 | IC50 [5]: 122 nM | KG-1 SI [5]: 1.0 | IC50 [6]: 21.4 nM | SNU-16 SI [6]: 5.7 | IC50 [7]: 56 nM | MIA PaCa-2 SI [7]: 2.2 | IC50 [8]: 3.1 nM | A2780 SI [8]: 39.2 | A2780Cis RI [9]: 0.6 | A2780Cis SI [9]: 61.5 | IC50 [9]: 1.98 nM

CC[C@@H](C(=O)[C@@H](C)[C@@H](O)[C@H](C)[C@@H]1O[C@@H]([C@@H](CC)C(=O)O)CC[C@@H]1C)[C@H]1O[C@]2(C=C[C@@H](NC(=O)NCCCl)[C@]3(CC[C@@](C)([C@H]4CC[C@](O)(CC)[C@H](C)O4)O3)O2)[C@H](C)C[C@@H]1C [FLC-00338-1 Na]
IC50 (Hs294T (human melanoma)): 1870 nM | Hs294T SI (Hs294T (human melanoma)): 0.1 | IC50 [1]: 620 nM | NCI-H23 SI [1]: 0.3 | IC50 [2]: 61.6 nM | PLC/PRF/5 SI [2]: 2.7 | IC50 [3]: 164 nM | IC50 [4]: 53.1 nM | PFSK-1 SI [4]: 3.1 | IC50 (A375 (human melanoma)): 354 nM | A375 SI (A375 (human melanoma)): 0.5 | IC50 [5]: 222 nM | KG-1 SI [5]: 0.7 | IC50 [6]: 39.2 nM | SNU-16 SI [6]: 4.2 | IC50 [7]: 58.6 nM | MIA PaCa-2 SI [7]: 2.8 | IC50 [8]: 5.4 nM | A2780 SI [8]: 30.4 | A2780Cis RI [9]: 1.9 | A2780Cis SI [9]: 16.2 | IC50 [9]: 10.1 nM

CC[C@@H](C(=O)[C@@H](C)[C@@H](O)[C@H](C)[C@@H]1O[C@@H]([C@@H](CC)C(=O)O)CC[C@@H]1C)[C@H]1O[C@]2(C=C[C@@H](NC(=O)Nc3cc(C(F)(F)F)cc(C(F)(F)F)c3)[C@]3(CC[C@@](C)([C@H]4CC[C@](O)(CC)[C@H](C)O4)O3)O2)[C@H](C)C[C@@H]1C [FLC-00344-1 Na]
IC50 (Hs294T (human melanoma)): 2570 nM | Hs294T SI (Hs294T (human melanoma)): 0.4 | IC50 [1]: 285 nM | NCI-H23 SI [1]: 3.7 | IC50 [2]: 1290 nM | PLC/PRF/5 SI [2]: 0.8 | IC50 [3]: 1060 nM | IC50 [4]: 112 nM | PFSK-1 SI [4]: 9.5 | IC50 (A375 (human melanoma)): 2310 nM | A375 SI (A375 (human melanoma)): 0.5 | IC50 [5]: 286 nM | KG-1 SI [5]: 3.7 | IC50 [6]: 106 nM | SNU-16 SI [6]: 10.0 | IC50 [7]: 383 nM | MIA PaCa-2 SI [7]: 2.8 | IC50 [8]: 21 nM | A2780 SI [8]: 50.5 | A2780Cis RI [9]: 1.2 | A2780Cis SI [9]: 43.8 | IC50 [9]: 24.3 nM

CC[C@@H](C(=O)[C@@H](C)[C@@H](O)[C@H](C)[C@@H]1O[C@@H]([C@@H](CC)C(=O)O)CC[C@@H]1C)[C@H]1O[C@]2(C=C[C@@H](NC(=S)Nc3cc(C(F)(F)F)cc(C(F)(F)F)c3)[C@]3(CC[C@@](C)([C@H]4CC[C@](O)(CC)[C@H](C)O4)O3)O2)[C@H](C)C[C@@H]1C [FLC-00348-1]
IC50 (Hs294T (human melanoma)): 3320 nM | Hs294T SI (Hs294T (human melanoma)): 0.9 | IC50 [1]: 972 nM | NCI-H23 SI [1]: 2.9 | IC50 [2]: 1150 nM | PLC/PRF/5 SI [2]: 2.5 | IC50 [3]: 2830 nM | IC50 [4]: 379 nM | PFSK-1 SI [4]: 7.4 | IC50 (A375 (human melanoma)): 2590 nM | A375 SI (A375 (human melanoma)): 1.1 | IC50 [5]: 188 nM | KG-1 SI [5]: 15.0 | IC50 [6]: 537 nM | SNU-16 SI [6]: 5.3 | IC50 [7]: 2320 nM | MIA PaCa-2 SI [7]: 1.2 | IC50 [8]: 57 nM | A2780 SI [8]: 49.6 | A2780Cis RI [9]: 0.8 | A2780Cis SI [9]: 60.6 | IC50 [9]: 46.6 nM

CCCNC(=S)N[C@@H]1C=C[C@]2(O[C@H]([C@@H](CC)C(=O)[C@@H](C)[C@@H](O)[C@H](C)[C@@H]3O[C@@H]([C@@H](CC)C(=O)O)CC[C@@H]3C)[C@@H](C)C[C@H]2C)O[C@@]12CC[C@@](C)([C@H]1CC[C@](O)(CC)[C@H](C)O1)O2 [FLC-00349-1]
IC50 (Hs294T (human melanoma)): 108 nM | Hs294T SI (Hs294T (human melanoma)): 0.6 | IC50 [1]: 75.2 nM | NCI-H23 SI [1]: 0.9 | IC50 [2]: 24.1 nM | PLC/PRF/5 SI [2]: 2.8 | IC50 [3]: 67.5 nM | IC50 [4]: 27.6 nM | PFSK-1 SI [4]: 2.4 | IC50 (A375 (human melanoma)): 113 nM | A375 SI (A375 (human melanoma)): 0.6 | IC50 [5]: 24.7 nM | KG-1 SI [5]: 2.7 | IC50 [6]: 20.7 nM | SNU-16 SI [6]: 3.3 | IC50 [7]: 66.3 nM | MIA PaCa-2 SI [7]: 1.0 | IC50 [8]: 4.5 nM | A2780 SI [8]: 15.0 | A2780Cis RI [9]: 1.0 | A2780Cis SI [9]: 14.8 | IC50 [9]: 4.56 nM

CCCCCCCNC(=O)N[C@@H]1C=C[C@]2(O[C@H]([C@@H](CC)C(=O)[C@@H](C)[C@@H](O)[C@H](C)[C@@H]3O[C@@H]([C@@H](CC)C(=O)O)CC[C@@H]3C)[C@@H](C)C[C@H]2C)O[C@@]12CC[C@@](C)([C@H]1CC[C@](O)(CC)[C@H](C)O1)O2 [FLC-00350-1]
IC50 (Hs294T (human melanoma)): 419 nM | Hs294T SI (Hs294T (human melanoma)): 0.2 | IC50 [1]: 101 nM | NCI-H23 SI [1]: 1.0 | IC50 [2]: 23 nM | PLC/PRF/5 SI [2]: 4.5 | IC50 [3]: 103 nM | IC50 [4]: 7.25 nM | PFSK-1 SI [4]: 14.2 | IC50 (A375 (human melanoma)): 251 nM | A375 SI (A375 (human melanoma)): 0.4 | IC50 [5]: 35.9 nM | KG-1 SI [5]: 2.9 | IC50 [6]: 18.2 nM | SNU-16 SI [6]: 5.7 | IC50 [7]: 37.4 nM | MIA PaCa-2 SI [7]: 2.8 | IC50 [8]: 2.46 nM | A2780 SI [8]: 42.0 | A2780Cis RI [9]: 0.9 | A2780Cis SI [9]: 44.9 | IC50 [9]: 2.3 nM

CC[C@@H](C(=O)[C@@H](C)[C@@H](O)[C@H](C)[C@@H]1O[C@@H]([C@@H](CC)C(=O)O)CC[C@@H]1C)[C@H]1O[C@]2(C=C[C@@H](NC(=O)NC3CCCC3)[C@]3(CC[C@@](C)([C@H]4CC[C@](O)(CC)[C@H](C)O4)O3)O2)[C@H](C)C[C@@H]1C [FLC-00351-1]
IC50 (Hs294T (human melanoma)): 360 nM | Hs294T SI (Hs294T (human melanoma)): 0.2 | IC50 [1]: 112 nM | NCI-H23 SI [1]: 0.6 | IC50 [2]: 22.3 nM | PLC/PRF/5 SI [2]: 3.0 | IC50 [3]: 66.6 nM | IC50 [4]: 10.7 nM | PFSK-1 SI [4]: 6.2 | IC50 (A375 (human melanoma)): 104 nM | A375 SI (A375 (human melanoma)): 0.6 | IC50 [5]: 23.7 nM | KG-1 SI [5]: 2.8 | IC50 [6]: 24.5 nM | SNU-16 SI [6]: 2.7 | IC50 [7]: 22 nM | MIA PaCa-2 SI [7]: 3.0 | IC50 [8]: 0.45 nM | A2780 SI [8]: 148.7 | A2780Cis RI [9]: 1.2 | A2780Cis SI [9]: 125.6 | IC50 [9]: 0.53 nM
